The record followed here is patent US20260200905A1, “MICROBIOCIDAL TETRAHYDROISOQUINOLINE DERIVATIVES” (SYNGENTA CROP PROTECTION AG, priority 2022, published 2026).

Experiment [1] concerns Mycosphaerella graminicola (Septoria tritici). Nature of the experiment: Mycosphaerella graminicola (Septoria tritici) / liquid culture (Septoria blotch). The format is cell-based. As to conditions: Zymoseptoria tritici, growth inhibition photometrically 4 to 5 days after application, read-out: control of Mycosphaerella graminicola. On the procedure:
Example B12: Mycosphaerella graminicola (Septoria tritici)/Liquid Culture (Septoria Blotch) Conidia of the fungus from cryogenic storage are directly mixed into nutrient broth (PDB potato dextrose broth). After placing a (DMSO) solution of test compound into a microtiter plate (96-well format), the nutrient broth containing the fungal spores is added. The test plates are incubated at 24° C. and the inhibition of growth is determined photometrically 4 to 5 days after application.

In experiment [2] the test system is Monographella nivalis (Microdochium nivale). Nature of the experiment: Monographella nivalis (Microdochium nivale) / liquid culture (foot rot cereals). The format is cell-based. As to conditions: growth inhibition photometrically 4 to 5 days after application, read-out: control of Monographella nivalis. The method, then:
Example B5: Monographella nivalis (Microdochium nivale)/Liquid Culture (Foot Rot Cereals) Conidia of the fungus from cryogenic storage are directly mixed into nutrient broth (PDB potato dextrose broth). After placing a (DMSO) solution of test compound into a microtiter plate (96-well format), the nutrient broth containing the fungal spores is added. The test plates are incubated at 24° C. and the inhibition of growth is determined photometrically 4 to 5 days after application.

Experiment [3] deals with Mycosphaerella arachidis (Cercospora arachidicola). Nature of the experiment: Mycosphaerella arachidis (Cercospora arachidicola) / liquid culture (early leaf spot). The format is cell-based. As to conditions: growth inhibition photometrically 4 to 5 days after application, read-out: control of Mycosphaerella arachidis. The method, then: Example B6: Mycosphaerella arachidis (Cercospora arachidicola)/Liquid Culture (Early Leaf Spot) Conidia of the fungus from cryogenic storage are directly mixed into nutrient broth (PDB potato dextrose broth). After placing a (DMSO) solution of test compound into a microtiter plate (96-well format), the nutrient broth containing the fungal spores is added. The test plates are incubated at 24° C. and the inhibition of growth is determined photometrically 4 to 5 days after application.

Experiment [4] has as its system Phaeosphaeria nodorum (Septoria nodorum). Nature of the experiment: Phaeosphaeria nodorum (Septoria nodorum) / wheat / leaf disc preventative (glume blotch). The format is in vivo. As to conditions: 200 ppm, compared to untreated control. On the procedure:
Example B4: Phaeosphaeria Nodorum (Septoria nodorum)/Wheat/Leaf Disc Preventative (Glume Blotch) Wheat leaf segments cv. Kanzler are placed on agar in a multiwell plate (24-well format) and sprayed with the formulated test compound diluted in water. The leaf disks are inoculated with a spore suspension of the fungus 2 days after application. The inoculated test leaf disks are incubated at 20° C. and 75% rh under a light regime of 12 h light/12 h darkness in a climate cabinet and the activity of a compound is assessed as percent disease control compared to untreated when an appropriate level of disease damage appears in untreated check leaf disks (5 to 7 days after application).

The subject of experiment [5] is Puccinia recondita f. sp. tritici. Nature of the experiment: Puccinia recondita f. sp. tritici / wheat / leaf disc curative (brown rust). As to conditions: 200 ppm, applied 1 day after inoculation. The format is in vivo. On the procedure:
Example B7: Puccinia recondita f. Sp. Tritici/Wheat/Leaf Disc Curative (Brown Rust) Wheat leaf segments cv. Kanzler are placed on agar in multiwell plates (24-well format). The leaf segments are inoculated with a spore suspension of the fungus. Plates are stored in darkness at 19° C. and 75% rh. The formulated test compound diluted in water is applied 1 day after inoculation. The leaf segments are incubated at 19° C. and 75% rh under a light regime of 12 h light/12 h darkness in a climate cabinet and the activity of a compound is assessed as percent disease control compared to untreated when an appropriate level of disease damage appears in untreated check leaf segments (6 to 8 days after application).

For another experiment, the system named is Pythium ultimum. Briefly: Pythium ultimum / liquid culture (seedling damping off). As to conditions: 20 ppm, growth inhibition photometrically 2 to 3 days after application. The format is cell-based. The method, then:
Example B10: Pythium ultimum/Liquid Culture (Seedling Damping Off) Mycelia fragments and oospores of a newly grown liquid culture of the fungus are directly mixed into nutrient broth (PDB potato dextrose broth). After placing a (DMSO) solution of test compound into a microtiter plate (96-well format), the nutrient broth containing the fungal mycelia/spore mixture is added. The test plates are incubated at 24° C. and the inhibition of growth is determined photometrically 2 to 3 days after application.

In experiment [6] the test system is Thanatephorus cucumeris (Rhizoctonia solani). Nature of the experiment: Thanatephorus cucumeris (Rhizoctonia solani) / liquid culture (foot rot, damping-off). The format is cell-based. As to conditions: 20 ppm, growth inhibition photometrically 3 to 4 days after application. The method, then:
Example B11: Thanatephorus cucumeris (Rhizoctonia solani)/Liquid Culture (Foot Rot, Damping-Off) Mycelia fragments of a newly grown liquid culture of the fungus are directly mixed into nutrient broth (PDB potato dextrose broth). After placing a (DMSO) solution of the test compounds into a microtiter plate (96-well format), the nutrient broth containing the fungal material is added. The test plates are incubated at 24° C. and the inhibition of growth is determined photometrically 3 to 4 days after application.

The next experiment concerns Pyrenophora teres. Briefly: Pyrenophora teres / barley / leaf disc preventative (net blotch). The format is in vivo. As to conditions: 200 ppm, compared to untreated control. The method, then: Example B9: Pyrenophora teres/Barley/Leaf Disc Preventative (Net Blotch) Barley leaf segments cv. Hasso are placed on agar in a multiwell plate (24-well format) and sprayed with the formulated test compound diluted in water. The leaf segments are inoculated with a spore suspension of the fungus 2 days after application. The inoculated leaf segments are incubated at 20° C. and 65% rh under a light regime of 12 h light/12 h darkness in a climate cabinet and the activity of a compound is assessed as disease control compared to untreated when an appropriate level of disease damage appears in untreated check leaf segments (5 to 7 days after application).

For the compound `O=C(c1cc(-c2ccc(F)cc2F)on1)N1Cc2ccccc2C(c2cnccn2)C1` (centres unmarked) [Compound P-8, [5-(2,4-difluorophenyl)isoxazol-3-yl]-(4-pyrazin-2-yl-3,4-dihydro-1H-isoquinolin-2-yl]methanone], the inhibition of growth at 20 ppm in experiment [1], in experiment [2] and in experiment [3] was at least 80% throughout.

Regarding `Cn1nc(C2CN(C(=O)c3cc(-c4ccc(F)cc4F)on3)Cc3ccccc32)cc1Cl` (centres unmarked) [Compound P-7, [4-(5-chloro-1-methyl-pyrazol-3-yl)-3,4-dihydro-1H-isoquinolin-2-yl]-[5-(2,4-difluorophenyl)isoxazol-3-yl]methanone], the inhibition of growth at 20 ppm in experiment [1], in experiment [2] and in experiment [3] was at least 80% throughout. In addition, in experiment [4], the “control of Phaeosphaeria nodorum” value was “at least 80%”.

Consider `O=C(c1cc(-c2ccc(F)cc2F)on1)N1Cc2ccccc2C(c2cncnc2)C1` (centres unmarked) [Compound P-4, [5-(2,4-difluorophenyl)isoxazol-3-yl]-(4-pyrimidin-5-yl-3,4-dihydro-1H-isoquinolin-2-yl)methanone], for which the inhibition of growth at 20 ppm in experiment [1], in experiment [2] and in experiment [3] was at least 80% each time.

Regarding `O=C(c1cc(-c2ccc(F)cc2F)on1)N1Cc2cccc(F)c2C(c2cccnc2)C1` (centres unmarked) [Compound P-9, [5-(2,4-difluorophenyl)isoxazol-3-yl]-[5-fluoro-4-(3-pyridyl)-3,4-dihydro-1H-isoquinolin-2-yl]methanone], the inhibition of growth at 20 ppm in experiment [1], in experiment [2] and in experiment [3] was at least 80% each time.

Take `Cc1c(C2CN(C(=O)c3cc(-c4ccc(F)cc4F)no3)Cc3ccccc32)cc(C#N)n1C` (centres unmarked) [Compound P-19, 4-[2-[3-(2,4-difluorophenyl)isoxazole-5-carbonyl]-3,4-dihydro-1H-isoquinolin-4-yl]-1,5-dimethyl-pyrrole-2-carbonitrile]: the “control of Puccinia recondita f sp. tritici” value in experiment [5] is “at least 80%”. Besides, the inhibition of growth at 20 ppm in experiment [1] was at least 80%.

Turning to `O=C(c1cc(-c2ccc(F)cc2F)on1)N1Cc2ccccc2C(c2ccncc2)C1` (centres unmarked) [Compound P-2, [5-(2,4-difluorophenyl)isoxazol-3-yl]-4-[4-(4-pyridyl)-3,4-dihydro-1H-isoquinolin-2-yl]methanone], the inhibition of growth at 20 ppm in experiment [1] and in experiment [2] was at least 80% each time. The “control of Pythium ultimum” value in the experiment on Pythium ultimum is given as “at least 80%”. Further, the “control of Thanatephorus cucumeris” value in experiment [6] is “at least 80%”.

For `Cc1ccc(C2CN(C(=O)c3cc(-c4ccc(F)cc4F)on3)Cc3ccccc32)cn1` (centres unmarked) [Compound P-3, [5-(2,4-difluorophenyl)isoxazol-3-yl]-[4-(6-methyl-3-pyridyl)-3,4-dihydro-1H-isoquinolin-2-yl]methanone], the inhibition of growth at 20 ppm in experiment [1], in experiment [2] and in experiment [3] was at least 80% in each case.

Consider `O=C(c1cc(-c2ccc(F)cc2F)on1)N1Cc2c(F)cccc2C(c2cccnc2)C1` (centres unmarked) [Compound P-1, [5-(2,4-difluorophenyl)isoxazol-3-yl]-[8-fluoro-4-(3-pyridyl)-3,4-dihydro-1H-isoquinolin-2-yl]methanone], for which the inhibition of growth at 20 ppm in experiment [1], in experiment [2] and in experiment [3] was at least 80% each time. In addition, the “control of Pyrenophora teres” value in the experiment with Pyrenophora teres is “at least 80%”.

As to `O=C(c1cc(-c2ccc(F)cc2F)on1)N1Cc2ccccc2C(c2cccnc2)C1` (centres unmarked) [Compound P-5, [5-(2,4-difluorophenyl)isoxazol-3-yl]-[4-(3-pyridyl)-3,4-dihydro-1H-isoquinolin-2-yl]methanone], the inhibition of growth at 20 ppm in experiment [1], in experiment [2] and in experiment [3] was at least 80% throughout.

As for `O=C(c1cc(-c2ccccc2)on1)N1Cc2ccccc2C(c2cccnc2)C1` (centres unmarked) [Compound P-6, (5-phenylisoxazol-3-yl)-[4-(3-pyridyl)-3,4-dihydro-1H-isoquinolin-2-yl]methanone], the inhibition of growth at 20 ppm in experiment [1], in experiment [2] and in experiment [3] was at least 80% each time.
